Reference: ChEMBL document CHEMBL1201862, “PubChem BioAssay data set” (2004)
Active and inactive are the calls of the source.

Legend:
Cannabinoid receptor 1 [1] = biological target: T1, Cannabinoid receptor 1 (Homo sapiens, UniProt P21554); assay: SAR analysis of antagonists of the Cannabinoid Receptor 1 using an Image-Based Assay - Set 4. [Related pubchem assays (depositor defined):AID2013, AID2026]; assay type: functional
[2] = biological target: G-protein coupled receptor 55 (Homo sapiens, UniProt Q9Y2T6); assay: SAR Analysis of Selective Antagonists of GPR55 using an Image-Based Assay - Set 4. [Related pubchem assays (depositor defined):AID2013, AID2026]; assay type: functional;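 note: antagonism of response to 5 µM lysophosphatidylinositol agonist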
Chain of G-protein coupled receptor 55 (Q9Y2T6 whole entry): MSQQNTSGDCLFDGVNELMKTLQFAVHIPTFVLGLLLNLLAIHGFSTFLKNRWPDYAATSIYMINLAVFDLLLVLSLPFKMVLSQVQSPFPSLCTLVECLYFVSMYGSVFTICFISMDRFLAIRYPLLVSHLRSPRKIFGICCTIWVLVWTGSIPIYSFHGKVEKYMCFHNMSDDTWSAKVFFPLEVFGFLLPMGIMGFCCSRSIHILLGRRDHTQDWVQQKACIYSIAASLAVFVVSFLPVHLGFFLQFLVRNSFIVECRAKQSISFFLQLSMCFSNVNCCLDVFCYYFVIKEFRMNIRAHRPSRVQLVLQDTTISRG

Cannabinoid receptor 1 [3] = biological target: T1, Cannabinoid receptor 1; assay: SAR analysis of agonists of the Cannabinoid Receptor 1 using an Image-Based Assay - Set 4. [Related pubchem assays (depositor defined):AID2013, AID2026]; assay type: functional
Cannabinoid receptor 2 [4] = biological target: T2, Cannabinoid receptor 2 (Homo sapiens, UniProt P34972); assay: SAR analysis of agonists of the Cannabinoid Receptor 2 using an Image-Based Assay - Set 3. [Related pubchem assays (depositor defined):AID2013, AID2026]; assay type: functional
T2 sequence (P34972 whole entry): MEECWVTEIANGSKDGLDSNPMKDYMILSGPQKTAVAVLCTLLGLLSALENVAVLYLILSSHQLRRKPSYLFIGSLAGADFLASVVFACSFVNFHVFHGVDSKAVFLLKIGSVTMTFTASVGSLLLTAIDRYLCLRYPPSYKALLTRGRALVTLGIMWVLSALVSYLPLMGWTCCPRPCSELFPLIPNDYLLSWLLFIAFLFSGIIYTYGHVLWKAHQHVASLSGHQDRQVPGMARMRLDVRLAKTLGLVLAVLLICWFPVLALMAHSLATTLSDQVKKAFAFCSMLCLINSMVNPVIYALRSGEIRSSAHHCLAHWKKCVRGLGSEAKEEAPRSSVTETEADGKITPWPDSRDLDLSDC

Cannabinoid receptor 2 [5] = biological target: T2, Cannabinoid receptor 2; assay: SAR analysis of antagonists of the Cannabinoid Receptor 2 using an Image-Based Assay - Set 3. [Related pubchem assays (depositor defined):AID2013, AID2026]; assay type: functional
[6] = biological target: T3, G-protein coupled receptor 35 (Homo sapiens, UniProt Q9HC97); assay: SAR analysis of Agonists of the GPR35 Receptor using an Image-Based Assay - Set 4. [Related pubchem assays (depositor defined):AID2013, AID2026]; assay type: functional
T3 sequence (Q9HC97 whole entry): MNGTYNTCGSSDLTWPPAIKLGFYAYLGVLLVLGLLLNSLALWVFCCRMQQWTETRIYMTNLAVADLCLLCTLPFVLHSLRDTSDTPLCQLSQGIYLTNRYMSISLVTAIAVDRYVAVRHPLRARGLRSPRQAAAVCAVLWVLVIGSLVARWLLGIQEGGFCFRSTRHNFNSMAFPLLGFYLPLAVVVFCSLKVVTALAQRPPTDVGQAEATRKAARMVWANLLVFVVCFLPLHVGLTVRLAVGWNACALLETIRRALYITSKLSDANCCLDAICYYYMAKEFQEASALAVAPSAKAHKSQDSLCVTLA

[7] = biological target: T3, G-protein coupled receptor 35; assay: SAR analysis of Antagonists of the GPR35 Receptor using an Image-Based Assay - Set 6. [Related pubchem assays (depositor defined):AID2013, AID2026]; assay type: functional
[8] = viability of uninfected HEp-2 cells – cell-based, HTS, cytotoxicity control for RSV inhibitor project, dose response (AID 2410); assay type: functional; details: human respiratory syncytial virus
[9] = biological target: T4, Probable nicotinate-nucleotide adenylyltransferase (Staphylococcus aureus (strain N315), UniProt P65502); assay type: functional, Staphylococcus aureus subsp. aureus N315;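 for IC50 Mean: confirmatory dose-response retesting of NadD inhibitor hits first found in an ultra-high-throughput screen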
T4 sequence (P65502 whole entry): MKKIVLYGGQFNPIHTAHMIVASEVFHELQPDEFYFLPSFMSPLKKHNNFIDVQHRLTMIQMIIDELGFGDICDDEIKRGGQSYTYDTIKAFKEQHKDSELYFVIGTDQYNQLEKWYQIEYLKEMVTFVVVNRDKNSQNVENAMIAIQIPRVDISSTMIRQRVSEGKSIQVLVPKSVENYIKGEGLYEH

[10] = biological target: T4, Probable nicotinate-nucleotide adenylyltransferase; assay type: functional, Staphylococcus aureus subsp. aureus N315; details: read-out: IC50_Mean
[11] = biological target: T5, Intestinal-type alkaline phosphatase (Homo sapiens, UniProt P09923); assay: human intestinal alkaline phosphatase activators, dose response, biochemical, luminescence, uHTS hits (AID 463120); assay type: functional
T5 sequence (P09923 whole entry): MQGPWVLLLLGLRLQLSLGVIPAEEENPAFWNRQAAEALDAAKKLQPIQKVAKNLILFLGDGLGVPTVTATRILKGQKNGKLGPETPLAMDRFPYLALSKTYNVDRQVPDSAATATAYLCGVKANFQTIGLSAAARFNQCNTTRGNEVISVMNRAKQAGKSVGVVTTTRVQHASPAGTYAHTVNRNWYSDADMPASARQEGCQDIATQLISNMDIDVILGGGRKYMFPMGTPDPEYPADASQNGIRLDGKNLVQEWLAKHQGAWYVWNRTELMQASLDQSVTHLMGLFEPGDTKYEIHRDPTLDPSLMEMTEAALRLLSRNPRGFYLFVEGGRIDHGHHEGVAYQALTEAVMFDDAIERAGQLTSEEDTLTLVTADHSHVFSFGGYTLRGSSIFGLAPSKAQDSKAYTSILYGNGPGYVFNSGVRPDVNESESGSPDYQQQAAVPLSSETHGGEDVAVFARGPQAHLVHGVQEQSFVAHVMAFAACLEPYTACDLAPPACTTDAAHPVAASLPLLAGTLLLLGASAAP

[12] = biological target: T6, Alkaline phosphatase, tissue-nonspecific isozyme (Homo sapiens, UniProt P05186); assay: activation of tissue-nonspecific alkaline phosphatase – biochemical, TNAP isozyme, human IAP uHTS hits, selectivity assay for human IAP activator project, dose response (AID 488886); assay type: functional;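 note: potency of compounds raising TNAP activity as a selectivity check on IAP activators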
T6 sequence (P05186 whole entry): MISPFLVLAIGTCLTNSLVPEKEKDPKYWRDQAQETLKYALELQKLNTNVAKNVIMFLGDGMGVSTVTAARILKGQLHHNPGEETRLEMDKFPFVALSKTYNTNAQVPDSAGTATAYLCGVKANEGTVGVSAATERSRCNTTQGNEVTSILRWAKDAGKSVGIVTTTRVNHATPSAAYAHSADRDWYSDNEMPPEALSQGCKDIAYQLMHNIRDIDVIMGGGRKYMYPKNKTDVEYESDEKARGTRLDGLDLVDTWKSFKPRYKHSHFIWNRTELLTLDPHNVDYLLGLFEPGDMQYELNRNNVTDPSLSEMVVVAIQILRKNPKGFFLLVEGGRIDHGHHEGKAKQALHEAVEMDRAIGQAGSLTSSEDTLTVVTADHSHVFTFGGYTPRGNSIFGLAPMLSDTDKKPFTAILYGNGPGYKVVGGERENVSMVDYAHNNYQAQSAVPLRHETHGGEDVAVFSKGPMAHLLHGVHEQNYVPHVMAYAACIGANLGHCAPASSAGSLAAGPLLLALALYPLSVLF

[13] = biological target: Intestinal-type alkaline phosphatase (Mus musculus, UniProt P24822); assay: PubChem AID 488875; assay type: functional
Chain of Intestinal-type alkaline phosphatase (Mus musculus, UniProt P24822) (P24822 whole entry): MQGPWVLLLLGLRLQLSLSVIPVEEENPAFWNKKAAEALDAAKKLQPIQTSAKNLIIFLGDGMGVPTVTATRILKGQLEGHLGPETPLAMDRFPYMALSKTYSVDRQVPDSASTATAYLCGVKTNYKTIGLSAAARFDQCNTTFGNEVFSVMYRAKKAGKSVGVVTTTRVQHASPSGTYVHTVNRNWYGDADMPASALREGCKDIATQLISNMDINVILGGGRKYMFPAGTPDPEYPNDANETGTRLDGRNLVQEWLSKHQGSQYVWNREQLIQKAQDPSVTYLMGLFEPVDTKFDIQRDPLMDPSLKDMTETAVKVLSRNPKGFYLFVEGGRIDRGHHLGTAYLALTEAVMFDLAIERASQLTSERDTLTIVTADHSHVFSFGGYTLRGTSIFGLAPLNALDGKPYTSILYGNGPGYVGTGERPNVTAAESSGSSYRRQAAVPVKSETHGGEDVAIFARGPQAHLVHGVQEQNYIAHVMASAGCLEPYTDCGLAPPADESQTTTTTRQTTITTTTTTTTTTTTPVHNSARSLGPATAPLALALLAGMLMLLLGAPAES

[14] = biological target: T5, Intestinal-type alkaline phosphatase; assay: activation of human intestinal alkaline phosphatase – biochemical, luminescent, uHTS hits, set 2, dose response (AID 488817); assay type: functional;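 note: potency of activators that raise enzyme activity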
[15] = biological target: T7, Tyrosine-protein phosphatase non-receptor type 22 (Homo sapiens, UniProt Q9Y2R2); assay type: functional
T7 sequence (Q9Y2R2 whole entry): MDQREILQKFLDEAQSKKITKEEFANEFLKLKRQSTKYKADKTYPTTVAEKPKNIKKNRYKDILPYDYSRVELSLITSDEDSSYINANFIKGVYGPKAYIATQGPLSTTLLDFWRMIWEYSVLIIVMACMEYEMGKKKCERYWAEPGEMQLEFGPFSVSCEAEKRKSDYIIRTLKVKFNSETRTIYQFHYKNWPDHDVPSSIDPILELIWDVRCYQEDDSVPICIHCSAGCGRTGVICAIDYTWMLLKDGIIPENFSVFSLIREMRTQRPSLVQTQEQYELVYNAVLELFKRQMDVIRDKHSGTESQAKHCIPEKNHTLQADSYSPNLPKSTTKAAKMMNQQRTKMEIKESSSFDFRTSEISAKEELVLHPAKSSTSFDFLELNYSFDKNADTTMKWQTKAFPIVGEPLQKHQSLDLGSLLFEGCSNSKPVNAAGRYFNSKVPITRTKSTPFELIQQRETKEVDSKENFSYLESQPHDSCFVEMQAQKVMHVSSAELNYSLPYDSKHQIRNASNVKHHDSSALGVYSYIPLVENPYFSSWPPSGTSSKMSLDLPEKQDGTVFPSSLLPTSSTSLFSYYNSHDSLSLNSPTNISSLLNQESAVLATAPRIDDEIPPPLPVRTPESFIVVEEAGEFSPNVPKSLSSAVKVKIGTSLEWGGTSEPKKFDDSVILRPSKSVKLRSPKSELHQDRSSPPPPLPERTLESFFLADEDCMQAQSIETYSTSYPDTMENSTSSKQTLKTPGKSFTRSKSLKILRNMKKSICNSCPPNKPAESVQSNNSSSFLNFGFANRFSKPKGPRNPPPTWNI

[16] = biological target: T8, Tyrosine-protein phosphatase non-receptor type 7 (Homo sapiens, UniProt P35236); assay type: functional
T8 sequence (P35236 whole entry): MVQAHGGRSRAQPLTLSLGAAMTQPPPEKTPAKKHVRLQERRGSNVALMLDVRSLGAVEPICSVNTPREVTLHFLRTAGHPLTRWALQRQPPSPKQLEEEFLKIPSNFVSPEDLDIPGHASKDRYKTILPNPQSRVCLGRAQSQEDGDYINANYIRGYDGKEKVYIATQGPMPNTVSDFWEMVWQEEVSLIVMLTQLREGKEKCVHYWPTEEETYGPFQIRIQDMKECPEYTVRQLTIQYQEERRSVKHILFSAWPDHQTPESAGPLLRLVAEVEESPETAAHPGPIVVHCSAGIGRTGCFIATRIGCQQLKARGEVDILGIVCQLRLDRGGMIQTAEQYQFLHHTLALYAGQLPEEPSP

[17] = biological target: T7, Tyrosine-protein phosphatase non-receptor type 22; assay type: functional; remark: listed apart in the source

T1 sequence (P21554 whole entry): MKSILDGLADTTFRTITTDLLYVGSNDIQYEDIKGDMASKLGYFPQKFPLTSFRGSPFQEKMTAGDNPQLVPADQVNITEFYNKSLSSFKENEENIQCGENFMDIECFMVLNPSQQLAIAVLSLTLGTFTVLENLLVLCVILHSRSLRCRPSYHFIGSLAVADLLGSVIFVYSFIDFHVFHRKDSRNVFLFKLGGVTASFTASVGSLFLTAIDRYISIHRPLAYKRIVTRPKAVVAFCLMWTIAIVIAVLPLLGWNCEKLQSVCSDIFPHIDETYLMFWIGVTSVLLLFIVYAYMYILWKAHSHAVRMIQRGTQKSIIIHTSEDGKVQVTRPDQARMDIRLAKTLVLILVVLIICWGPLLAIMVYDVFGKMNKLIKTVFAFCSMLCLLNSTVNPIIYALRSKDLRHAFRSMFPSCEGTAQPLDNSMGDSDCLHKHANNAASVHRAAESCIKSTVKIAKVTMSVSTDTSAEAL

Cc1ccc(-c2cc(C(=O)Nc3ccc(S(=O)(=O)Nc4nccs4)cc3)c3ccccc3n2)c(C)c1
IC50 (Cannabinoid receptor 1 [1]): 10.2 µM (inactive) | IC50 [2]: 7.7 µM (active) | EC50 (Cannabinoid receptor 1 [3]): > 32 µM (inactive) | EC50 (Cannabinoid receptor 2 [4]): > 32 µM (inactive) | IC50 (Cannabinoid receptor 2 [5]): > 32 µM (inactive) | EC50 [6]: > 32 µM (inactive) | IC50 [7]: > 32 µM (inactive) | CC50 [8]: 24.3 µM (active) | IC50 [9]: 5.29 µM (active) | IC50 [10]: 21.6 µM (active)

CC(N=C(S)NC1CCC(C(C)(C)C)CC1)c1ccccc1 (configuration not stated)
EC50 [11]: 39.8 µM (active) | EC50 [12]: 38.8 µM (active) | EC50 [13]: 22.4 µM (active) | EC50 [14]: 44.3 µM (active)

COc1ccc(C2CC(c3ccc(C)cc3)=NN2C(=O)CCC(=O)O)cc1OC (configuration not stated)
IC50 [15]: > 79.4 µM (inactive) | IC50 [16]: > 79.4 µM (inactive) | IC50 [17]: > 79.4 µM (inactive)
